Data on 46 compounds can be found in patent US5098900A, “3(2H)pyridazinone, process for its preparation and anti-allergic agent containing it” (Nissan Chemical Industries Ltd., priority 1984, dated 1992).

The test system of one data set is LTC4. Briefly: LTC4 antagonism in isolated guinea-pig trachea (LTC4-induced contraction). In kind it is cell-based. To be noted: 5 min, test compound 10^-5 g/ml, LTC4 2×10^-8 g/ml, guinea-pig trachea; for inhibition at 10 µg/mL: Cavia porcellus, read-out: LTC4 antagonism. The method, then:
(§1) (ii) LTC4 and LTD4 antagonisms in guinea-pig trachea
(§2) Antagonism for LTC4 and LTD4 were determined in isolated guinea-pig trachea prepared as spiral strip. 10 Tracheal preparations were suspended under 1 g tension in […] and they were incubated for 1 hr prior to use. Contractile responses to LTC4 (2×10^-8 g/ml) and LTD4 (2×10^-8 g/ml) were obtained after the maximal response to histamine (10^-4 M). Test compounds dissolved in 100% dimethyl sulfoxide were added to the organ baths (final concentration of 10^-5 g/ml) 5 min prior to LTC4 and LTD4 addition, and then contractile responses to LTC4 and LTD4 were compared with those of control which was obtained from a paired trachea in the absence of test compounds. LTC4 - and LTD4 -induced contractions were expressed as a percentage of the maximal response to histamine. The antagonism was determined as follows: Antagonism (%)=(1.0-% contraction in test/% contraction in control)×100

The test system of another data set is ddY strain male. The experiment in a line: Acute toxicity test, method-(2), intraperitoneal injection. In kind it is in vivo, ddY strain male (4 weeks old). To be noted: 7 days. The method, then:
The lethal ratio was determined in ddY strain male (4 weeks old) at 7 days after the intraperitoneal injection of test compounds.

The subject of a further data set is LTD4. The experiment in a line: LTD4 antagonism in isolated guinea-pig trachea (LTD4-induced contraction). To be noted: 5 min, test compound 10^-5 g/ml, LTD4 2×10^-8 g/ml; for inhibition at 10 µg/mL: Cavia porcellus. The format is cell-based. The method, then:
as §1, §2

The test system of data set [1] is antigen-induced anaphylactic bronchoconstriction. Briefly: Effect on anaphylactic bronchoconstriction in passively sensitized guinea-pig. In kind it is in vivo. To be noted: 2 mg/kg, i.v. The method, then:
(iii) Effect on anaphylactic bronchoconstriction in passively sensitized guinea-pig
Male guinea-pigs (350-450 g) were passively sensitized with intravenous (i.v.) injection of 0.125 ml rabbit anti-EA serum (Cappel Laboratories) 1 day preceding the experiment. […] The right jugular vein was cannulated for the administration of the all agents and trachea was cannulated to record total pulmonary resistance. Guinea-pigs were artificially ventilated by a small animal respirator (Shinano, Model SN-480-7) set at a stroke volume of 4-5 ml and a rate of 50 breaths per min. […] The increase in air overflow volume was expressed as a percentage of the maximum bronchoconstriction obtained by clamping off the trachea. Following surgical preparation, the animals were pretreated with indomethacin (1.0 mg/kg, 10 min), pyrilamine (2 mg/kg, 6 min) and propranolol (0.1 mg/kg, 5 min) prior to the EA challenge (0.1 or 10 mg/kg). All test compounds, 2 mg/kg in 3% Tween 80 or 3% PEG-400, were administered 1 min before the EA challenge. Inhibition (%) of bronchoconstriction was determined as follows Inhibition (%)=(1.0% -maximum bronchoconstriction in test/% maximum bronchoconstriction in control) ×100.
In the Table, the dose of EA was 10 mg/kg, and each compound was dissolved or suspended in 3% Tween 80.
In the Table, the dose of EA was 0.1 mg/kg.
*: PEG represents polyethylene glycol400.

Regarding `CN(C)Cc1ccc(CNc2cnn(C(C)(C)C)c(=O)c2Cl)cc1` [compound 48], the inhibition at 10 µg/mL in the data set with LTC4 was 30%. Take `CCOc1cc(CNc2cnn(CC)c(=O)c2Cl)ccc1OC` [compound 102]: the inhibition at 10 µg/mL with LTC4 is 97%; in the data set with LTD4 it was 86%. The “Lethal ratio (Death number/Experimental number)” value in the data set with ddY strain male (100 mg/kg) is on record as 0/2.

On to `CC(C)(C)n1ncc(NCc2ccc(/C=C/C(=O)O)cc2)c(Cl)c1=O` [compound 24], for which, in the data set on LTC4, the inhibition at 10 µg/mL was found to be 7%. Consider `CCn1ncc(NCc2ccc(OC)c(OC)c2)c(Cl)c1=O` [Compound No. 13], for which, in the data set on LTD4, the inhibition at 10 µg/mL came to 76%. Besides, the “Inhibition of anaphylactic bronchoconstriction” value in data set [1] (EA 10 mg/kg, 3% Tween 80) is 43%. On to `CCCOc1cccc(CNc2cnn(C(C)C)c(=O)c2Cl)c1` [compound 94], for which the inhibition at 10 µg/mL in the data set on LTC4 worked out at 83%; in the data set on LTD4, 75%. For the same compound, in the data set on ddY strain male (200 mg/kg), the “Lethal ratio (Death number/Experimental number)” value was 0/2. Turning to `CCN(CC)c1ccc(CNc2cnn(C(C)(C)C)c(=O)c2Cl)cc1` [compound 29], the inhibition at 10 µg/mL in the data set with LTC4 amounted to 68%. `CC(C)(C)n1ncc(NCc2ccc(C(=O)N3CCOCC3)cc2)c(Cl)c1=O` [compound 40]: the inhibition at 10 µg/mL in the data set with LTC4 was determined as 17%. Compound `CCCOc1cc(OC)ccc1CNc1cnn(CC)c(=O)c1Cl` [compound 112] displayed an inhibition at 10 µg/mL in the data set with LTD4 of 86%. The “Inhibition of anaphylactic bronchoconstriction” value in data set [1] (EA 0.1 mg/kg, Tween 80) is on record as 49%. In the data set with LTD4, `COC(=O)/C=C/c1ccc(CNc2cnn(C(C)(C)C)c(=O)c2Cl)cc1` [compound 53] displayed an inhibition at 10 µg/mL of 38%. In data set [1] (EA 10 mg/kg, 3% Tween 80), the “Inhibition of anaphylactic bronchoconstriction” value came out at 38%. For the compound `Cc1ccccc1CNc1cnn(C(C)C)c(=O)c1Cl` [compound 78], the “Lethal ratio (Death number/Experimental number)” value in the data set with ddY strain male (200 mg/kg) is on record as 0/2; with ddY strain male (400 mg/kg) it was 0/1. Further, in the data set with LTD4, the inhibition at 10 µg/mL is 97%. As to `CCCOc1cccc(CNc2cnn(CC)c(=O)c2Cl)c1` [compound 93], the inhibition at 10 µg/mL with LTC4 is 93%; with LTD4 it was 96%. `CCOc1cc(OC)ccc1CNc1cnn(C(C)C)c(=O)c1Cl` [compound 109] registered an inhibition at 10 µg/mL in the data set with LTD4 of 92%. For the same compound, the “Inhibition of anaphylactic bronchoconstriction” value in data set [1] (EA 0.1 mg/kg, Tween 80) is reported as 30%. As for `CCn1ncc(NCc2cccc(OC)c2)c(Cl)c1=O` [Compound No. 6], the inhibition at 10 µg/mL with LTC4 worked out at 33%; in the data set with LTD4 it was 62%. Take `CCn1ncc(NCc2ccc(OC)cc2OC)c(Cl)c1=O` [compound 99]: the “Lethal ratio (Death number/Experimental number)” value in the data set on ddY strain male (100 mg/kg) is recorded as 0/2. Besides, the inhibition at 10 µg/mL in the data set on LTD4 came to 99%.

For `CCOc1ccccc1CNc1cnn(CC)c(=O)c1Cl` [compound 90], the “Lethal ratio (Death number/Experimental number)” value with ddY strain male (200 mg/kg) and in the data set on ddY strain male (400 mg/kg) was 0/2 each time. In addition, the inhibition at 10 µg/mL with LTD4 came to 96%.

`CC(C)n1ncc(NCc2cccc(OCCCCC(=O)O)c2)c(Cl)c1=O` [Compound No. 142, 4-Chloro-5-[3-(4-carboxy)butoxybenzylamino]-2-i-propyl-3(2H)pyridazinone] showed an inhibition at 10 µg/mL in the data set on LTD4 of 41%. `CC(C)n1ncc(NCc2ccc(N(C)C)cc2)c(Cl)c1=O` [compound 45] returned an LTD4 antagonism with LTD4 of 14%.

In the data set on LTD4, `CC(C)n1ncc(NCc2ccccc2)c(Cl)c1=O` [Compound No. 74, 4-Chloro-5-(benzylamino)-2-i-propyl-3(2H)pyridazinone] had an inhibition at 10 µg/mL of 91%. The “Inhibition of anaphylactic bronchoconstriction” value in data set [1] (EA 0.1 mg/kg, Tween 80) came to 31%. `COc1cc(CNc2cnn(C(C)C)c(=O)c2Cl)cc(OC)c1` [compound 98] gave an inhibition at 10 µg/mL in the data set on LTD4 of 55%. The same measure, in the same setting: under `CNC(=O)CCCCOc1cccc(CNc2cnn(C(C)C)c(=O)c2Cl)c1` [Compound No. 146, 4-Chloro-5-[3-(4-N-methylaminocarbonyl)butoxybenzylamino]-2-i-propyl-3(2H)pyridazinone] stands 32%; under `CCOc1cccc(CNc2cnn(CC)c(=O)c2Br)c1` [compound 156], 72%. Same read-out and setting: under `CCOc1cccc(CNc2cnn(C(C)C)c(=O)c2Cl)c1OCc1ccccc1` [compound 114] stands 77%. As for `CCN1CCN(Cc2ccc(CNc3cnn(C(C)(C)C)c(=O)c3Cl)cc2)CC1` [compound 49], the LTC4 antagonism in the data set on LTC4 amounted to 8%.

In the data set with LTD4, `CCOc1ccccc1CNc1cnn(C(C)C)c(=O)c1Cl` [compound 92] yielded an inhibition at 10 µg/mL of 92%.

The compound `CC(C)n1ncc(NCc2cccc(OCc3ccccc3)c2)c(Cl)c1=O` [Compound No. 95, 4-Chloro-5-(3-benzyloxybenzylamino)-2-i-propyl-3-(2H)pyridazinone] yielded an inhibition at 10 µg/mL in the data set on LTD4 of 62%.

Regarding `Cc1ccc(CNc2cnn(C(C)C)c(=O)c2Cl)cc1` [compound 77], the “Lethal ratio (Death number/Experimental number)” value in the data set with ddY strain male (200 mg/kg) and in the data set on ddY strain male (400 mg/kg) was 0/2 in each case. Moreover, the inhibition at 10 µg/mL in the data set with LTD4 amounted to 90%. `COc1ccc(CNc2cnn(C(C)C)c(=O)c2Br)cc1` [compound 162]: in the data set on LTD4, the inhibition at 10 µg/mL was determined as 100%. As for `Cc1ccc(CNc2cnn(C(C)C)c(=O)c2Cl)c(C)c1` [Compound No. 80], the “Lethal ratio (Death number/Experimental number)” value with ddY strain male (200 mg/kg) is reported as 0/2; in the data set with ddY strain male (400 mg/kg) it was 0/1. Besides, the inhibition at 10 µg/mL with LTD4 was determined as 99%. In the data set on LTD4, `CCCOc1cccc(CNc2cnn(CC)c(=O)c2Br)c1` [compound 157] had an inhibition at 10 µg/mL of 88%. For the compound `COc1cccc(CNc2cnn(C(C)C)c(=O)c2Br)c1` [compound 163], the inhibition at 10 µg/mL in the data set with LTD4 amounted to 95%.

Consider `CCOc1cccc(CNc2cnn(CC)c(=O)c2Cl)c1OC` [compound 110], for which the inhibition at 10 µg/mL in the data set with LTD4 was found to be 69%. Still for that read-out and setting: under `CCc1cc(CNc2cnn(C(C)C)c(=O)c2Cl)ccc1O` [compound 131] stands 52%. In turn, `CN(C)c1ccc(CNc2cnn(C(C)(C)C)c(=O)c2Br)cc1` [compound 47] came in with an LTD4 antagonism in the data set with LTD4 of 65%.

Turning to `Cc1cccc(CNc2cnn(C(C)C)c(=O)c2Cl)c1` [compound 76], the “Lethal ratio (Death number/Experimental number)” value in the data set with ddY strain male (200 mg/kg) is recorded as 0/2; in the data set on ddY strain male (400 mg/kg), 0/1. The same compound displayed an inhibition at 10 µg/mL with LTD4 of 97%. For `CN(C)CCCNC(=O)c1ccc(CNc2cnn(C(C)(C)C)c(=O)c2Cl)cc1` [compound 59], the inhibition at 10 µg/mL in the data set with LTC4 turned out to be 17%. With `CCOc1cccc(CNc2cnn(C(C)C)c(=O)c2)c1O` [compound 128], the inhibition at 10 µg/mL in the data set with LTD4 is 21%. Same read-out and setting: under `COCCOc1cc(CNc2cnn(C(C)C)c(=O)c2Cl)ccc1OC` [compound 148] stands 62%; under `CCCN(CCC)C(=O)c1ccc(CNc2cnn(C(C)(C)C)c(=O)c2Cl)cc1` [compound 39], 67%; under `CCOc1cc(CNc2cnn(C(C)C)c(=O)c2Cl)ccc1O` [compound 135], 61%. On the same count and under the same terms, as for `COc1ccc(CNc2cnn(C(C)C)c(=O)c2Br)c(OC)c1` [compound 169], the figure is 100%.

For `COc1cc(CNc2cnn(C(C)(C)C)c(=O)c2Cl)cc(OC)c1OC` [compound 120], the inhibition at 10 µg/mL in the data set with LTD4 came out at 26%. The same measure, in the same setting: under `CC(C)n1ncc(NCc2cccc(OCCCCCO)c2)c(Cl)c1=O` [Compound No. 147, 4-Chloro-5-[3-(5-hydroxy)pentoxybenzylamino]-2-i-propyl-3(2H)pyridazinone] stands 73%.

Regarding `CN(C)CCNC(=O)c1ccc(CNc2cnn(C(C)(C)C)c(=O)c2Cl)cc1` [compound 50], the LTD4 antagonism in the data set on LTD4 was determined as 12%. As to `CCn1ncc(NCc2cc(OC)c(OC)c(OC)c2)c(Cl)c1=O` [compound 121], the inhibition at 10 µg/mL in the data set on LTD4 worked out at 31%. For `CC(C)n1ncc(NCc2cccc(OCCCCC(=O)OC(C)(C)C)c2)c(Cl)c1=O` [Compound No. 139, 4-Chloro-5-[3-(4-t-butoxycarbonyl)butoxybenzylamino]-2-i-propyl-3(2H)pyridazinone], the inhibition at 10 µg/mL with LTD4 was found to be 57%. On the same count and under the same terms, as for `CCc1cc(CNc2cnn(CC)c(=O)c2Cl)ccc1OC` [compound 85], the figure is 91%.
